The subject of the assay is cells from the A4 clone (hemizygous D816V kit iPSC line). The experiment in a line: Enucleation rate by flow cytometry using DRAQ5 (PSC-RED protocol without SCF and Epo). Type of assay: cell-based, human. The settings on record: clone A4, 200 nM dasatinib introduced starting at day 35, read at day 41; without dasatinib about 18%. Background: In flow cytometry, cells or beads pass a laser one at a time.

These results are taken from patent US20250283041A1, “METHODS FOR PRODUCING RED BLOOD CELLS” (Albert Einstein College of Medicine, priority 2022, published 2025).

Description: Enucleation: The enucleation rate was measured using the DRAQ5 DNA nuclear stain (ThermoFisher) after exclusion of dead cells with Propidium Iodide. The cells were analyzed with an Aurora flow cytometer (Cytek) flow cytometer, and the flow cytometry data were analyzed with the Flowjo software.
To assess the effect of the D816V kit mutation, control 01 iPSCs were differentiated, and hemizygous clone A4 and homozygous and B34 were randomly selected using the PSC-RED protocol with or without SCF and Epo (FIG. 3A). Dasatinib, which can be used to inhibit the activity of the D816V SCF receptor, was also included in some experiments. Cells were counted once a week, and differentiation was evaluated by flow cytometry, methyl-cellulose assays, and microscopy after Romanowsky staining.
The rate of enucleation was determined by flow cytometry using DRAQ5, a cell permeant DNA dye. Since no cytokines are necessary after day 17 in the PSC-RED protocol in the absence of SCF and Epo, the only trigger left to induce terminal differentiation is the removal of dexamethasone and introduction of RU-4816, a glucocorticoid antagonist (FIG. 2A).

In the case of `Cc1nc(Nc2ncc(C(=O)Nc3c(C)cccc3Cl)s2)cc(N2CCN(CCO)CC2)n1` [dasatinib], the enucleation rate result is on record as “about 25%”.
